Assay results as given in patent US8748417B2, “Amino-pyrrolidine-azetidine diamides as monoacylglycerol lipase inhibitors” (Janssen Pharmaceutica, NV, priority 2010, dated 2014).

Columns and labels:
[1] = tested on: MGL (rat brain homogenate); experiment: 2-AG accumulation assay in rat brain homogenate; type: biochemical; settings: compound 1 μM, percent of vehicle 2-AG accumulation
Procedure: After a 15-min incubation time at 37° C., CaCl2 (final concentration=10 mM) was added and then incubated for 15 min at 37° C. in a total volume of 5 mL. The reactions were stopped with 6 mL organic solvent extraction solution of 2:1 chloroform/methanol. Accumulated 2-AG in the organic phase was measured by a HPLC/MS method, according to the following equation: percent vehicle=(2-AG accumulation in the presence of compound/2-AG accumulation in vehicle)×100.

[2] = target: T1, purified wild type MGL (wt-MGLL 6H-11-313) (Homo sapiens, UniProt Q99685); experiment: MGL enzyme activity assay (4MU-B cleavage), wild type MGL; type: biochemical; settings: wild type MGL 5 nM, 4MU-B 10 μM, 37° C.; read-out: MGL wild type inh IC50
T1 construct: purified wild type MGL (wt-MGLL 6H-11-313)
T1 sequence (Q99685 1-303): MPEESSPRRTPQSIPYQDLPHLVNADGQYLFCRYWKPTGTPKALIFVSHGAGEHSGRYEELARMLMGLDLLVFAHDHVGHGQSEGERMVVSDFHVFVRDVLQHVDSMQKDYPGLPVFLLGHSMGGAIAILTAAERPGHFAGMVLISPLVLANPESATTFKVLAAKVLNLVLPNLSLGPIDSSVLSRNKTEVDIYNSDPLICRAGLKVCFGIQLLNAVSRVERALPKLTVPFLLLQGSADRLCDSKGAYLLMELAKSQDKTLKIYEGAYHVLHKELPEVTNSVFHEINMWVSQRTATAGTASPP
Procedure: All rate-based assays were performed in black 384-well polypropylene PCR microplates (Abgene) in a total volume of 30 μL. Substrate 4-methylumbelliferyl butyrate (4MU-B; Sigma) and either purified mutant MGL (mut-MGLL 11-313 L179S L186S) or purified wild type MGL (wt-MGLL 6H-11-313) were diluted separately into 20 mM PIPES buffer (pH=7.0), containing 150 mM NaCl and 0.001% Tween 20. Compounds of Formula (I) were pre-dispensed (50 nL) into the assay plate using a Cartesian Hummingbird prior to adding 4MU-B (25 μL of 1.2× solution to a final concentration of 10 μM) followed by enzyme (5 μL of a 6× solution to a final concentration of 5 nM) to initiate the reaction. Final compound concentrations ranged from 17 to 0.0003 μM. The fluorescence change due to 4MU-B cleavage was monitored with excitation and emission wavelengths of 335 and 440 nm, respectively, and a bandwidth of 10 nm (Safire^2, Tecan) at 37° C. for 5 min.
The IC50 values for the following compounds were determined using Microsoft Office Excel from a fit of the equation to the concentration-response plot of the fractional activity as a function of inhibitor concentration.

Compound	Rat Brain 2AG % VehCntrl (%) @1 μM [1]	IC50 [2]
Cn1cc(-c2ccc(F)cc2)c2ccc(C(=O)N3CC(N[C@H]4CCN(C(=O)c5nccs5)C4)C3)cc21 [Cpd 192, (3S)-N-(1-{[3-(4-Fluorophenyl)-1-methyl-1H-indol-6-yl]carbonyl}azetidin-3-yl)-1-(1,3-thiazol-2-ylcarbonyl)pyrrolidin-3-amine]	374%	< 0.005 µM
Cc1c(C(=O)N2CC(N[C@H]3CCN(C(=O)c4nccs4)C3)C2)sc2ccc(-c3ccccc3)cc12 [Cpd 92, (3S)-N-{1-[(3-Methyl-5-phenyl-1-benzothiophen-2-yl)carbonyl]azetidin-3-yl}-1-(1,3-thiazol-2-ylcarbonyl)pyrrolidin-3-amine]	624%	< 0.005 µM
O=C(c1nccs1)N1CC[C@H](NC2CN(C(=O)c3sc4cc(C(F)(F)F)ccc4c3Cl)C2)C1 [Cpd 167, (3S)-N-(1-{[3-Chloro-6-(trifluoromethyl)-1-benzothiophen-2-yl]carbonyl}azetidin-3-yl)-1-(1,3-thiazol-2-ylcarbonyl)pyrrolidin-3-amine]	695%	0.011 µM
O=C(c1cscn1)N1CC[C@H](NC2CN(C(=O)c3cc4ccc(-c5cccc(C(F)(F)F)c5)cc4s3)C2)C1 [Cpd 100, (3S)-1-(1,3-Thiazol-4-ylcarbonyl)-N-[1-({6-[3-(trifluoromethyl)phenyl]-1-benzothiophen-2-yl}carbonyl)azetidin-3-yl]pyrrolidin-3-amine]	546%	< 0.005 µM
O=C(c1cscn1)N1CC[C@H](NC2CN(C(=O)c3sc4cc(-c5cccc(C(F)(F)F)c5)ccc4c3Cl)C2)C1 [Cpd 149, (3S)-N-[1-({3-Chloro-6-[3-(trifluoromethyl)phenyl]-1-benzothiophen-2-yl}carbonyl)azetidin-3-yl]-1-(1,3-thiazol-4-ylcarbonyl)pyrrolidin-3-amine]	811%	< 0.005 µM
O=C(c1nccs1)N1CC[C@H](NC2CN(C(=O)c3ccc(-c4cccc(C(F)(F)F)c4)cc3F)C2)C1 [Cpd 116, (3S)-N-(1-{[3-Fluoro-3′-(trifluoromethyl)biphenyl-4-yl]carbonyl}azetidin-3-yl)-1-(1,3-thiazol-2-ylcarbonyl)pyrrolidin-3-amine]	733%	< 0.005 µM
O=C(c1cc2cc(-c3cccc(C(F)(F)F)c3)ccc2s1)N1CC(N[C@H]2CCN(C(=O)c3nccs3)C2)C1 [Cpd 132, (3S)-1-(1,3-Thiazol-2-ylcarbonyl)-N-[1-({5-[3-(trifluoromethyl)phenyl]-1-benzothiophen-2-yl}carbonyl)azetidin-3-yl]pyrrolidin-3-amine]	1233%	< 0.005 µM
O=C(c1ccc2c(-c3ccc(C(F)(F)F)cc3)c[nH]c2c1)N1CC(N[C@H]2CCN(C(=O)c3nccs3)C2)C1 [Cpd 104, (3S)-1-(1,3-Thiazol-2-ylcarbonyl)-N-[1-({3-[4-(trifluoromethyl)phenyl]-1H-indol-6-yl}carbonyl)azetidin-3-yl]pyrrolidin-3-amine]	195%	0.0222 µM
O=C(c1cscn1)N1CC[C@H](NC2CN(C(=O)c3cc4ccc(-c5ccccc5)cc4s3)C2)C1 [Cpd 124, (3S)-N-{1-[(6-Phenyl-1-benzothiophen-2-yl)carbonyl]azetidin-3-yl}-1-(1,3-thiazol-4-ylcarbonyl)pyrrolidin-3-amine]	227%	0.006 µM
O=C(c1cscn1)N1CC[C@H](NC2CN(C(=O)c3sc4ccc(Cl)cc4c3C(F)(F)F)C2)C1 [Cpd 181, (3S)-N-(1-{[5-Chloro-3-(trifluoromethyl)-1-benzothiophen-2-yl]carbonyl}azetidin-3-yl)-1-(1,3-thiazol-4-ylcarbonyl)pyrrolidin-3-amine]	241%	0.0396 µM
O=C(c1ccccc1)N1CC[C@H](NC2CN(C(=O)c3sc4cc(-c5ccc(C(F)(F)F)cc5)ccc4c3F)C2)C1 [Cpd 179, (3S)-N-[1-({3-Fluoro-6-[4-(trifluoromethyl)phenyl]-1-benzothiophen-2-yl}carbonyl)azetidin-3-yl]-1-(phenylcarbonyl)pyrrolidin-3-amine]	259%	0.012 µM
Cn1cc(-c2ccccc2)c2ccc(C(=O)N3CC(N[C@H]4CCN(C(=O)c5nccs5)C4)C3)cc21 [Cpd 169, (3S)-N-{1-[(1-Methyl-3-phenyl-1H-indol-6-yl)carbonyl]azetidin-3-yl}-1-(1,3-thiazol-2-ylcarbonyl)pyrrolidin-3-amine]	482%	0.0139 µM
O=C(c1ccc2c(-c3cccc(C(F)(F)F)c3)c[nH]c2c1)N1CC(N[C@H]2CCN(C(=O)c3cscn3)C2)C1 [Cpd 106, (3S)-1-(1,3-Thiazol-4-ylcarbonyl)-N-[1-({3-[3-(trifluoromethyl)phenyl]-1H-indol-6-yl}carbonyl)azetidin-3-yl]pyrrolidin-3-amine]	389%	< 0.005 µM
O=C(c1ccccc1)N1CC[C@H](NC2CN(C(=O)c3sc4ccc(Cl)cc4c3C(F)(F)F)C2)C1 [Cpd 180, (3S)-N-(1-{[5-Chloro-3-(trifluoromethyl)-1-benzothiophen-2-yl]carbonyl}azetidin-3-yl)-1-(phenylcarbonyl)pyrrolidin-3-amine]	333%	0.0427 µM
O=C(c1ccc2c(ccn2-c2ccc(F)cc2)c1)N1CC(N[C@H]2CCN(C(=O)c3ccccc3)C2)C1 [Cpd 161, (3S)-N-(1-{[1-(4-Fluorophenyl)-1H-indol-5-yl]carbonyl}azetidin-3-yl)-1-(phenylcarbonyl)pyrrolidin-3-amine]	485%	0.055 µM
O=C(c1ccccc1)N1CC[C@H](NC2CN(C(=O)c3cc4cc(-c5ccc(Cl)s5)ccc4o3)C2)C1 [Cpd 122, (3S)-N-(1-{[5-(5-Chlorothiophen-2-yl)-1-benzofuran-2-yl]carbonyl}azetidin-3-yl)-1-(phenylcarbonyl)pyrrolidin-3-amine]	152%	0.0597 µM
O=C(c1ccc2c(-c3ccc(F)cc3)c[nH]c2c1)N1CC(N[C@H]2CCN(C(=O)c3ccccc3)C2)C1 [Cpd 191, (3S)-N-(1-{[3-(4-Fluorophenyl)-1H-indol-6-yl]carbonyl}azetidin-3-yl)-1-(phenylcarbonyl)pyrrolidin-3-amine]		0.297 µM
O=C(c1cc2cc(Br)ccc2s1)N1CC(N[C@H]2CCN(C(=O)c3nccs3)C2)C1 [Cpd 97, (3S)-N-{1-[(5-Bromo-1-benzothiophen-2-yl)carbonyl]azetidin-3-yl}-1-(1,3-thiazol-2-ylcarbonyl)pyrrolidin-3-amine]		0.133 µM
Cn1nc(-c2cccc(F)c2)c2cc(C(=O)N3CC(N[C@H]4CCN(C(=O)c5ccccc5)C4)C3)ccc21 [Cpd 201, (3S)-N-(1-{[3-(3-Fluorophenyl)-1-methyl-1H-indazol-5-yl]carbonyl}azetidin-3-yl)-1-(phenylcarbonyl)pyrrolidin-3-amine]		0.459 µM
Cn1cc(-c2ccccc2)c2ccc(C(=O)N3CC(N[C@H]4CCN(C(=O)c5cscn5)C4)C3)cc21 [Cpd 170, (3S)-N-{1-[(1-Methyl-3-phenyl-1H-indol-6-yl)carbonyl]azetidin-3-yl}-1-(1,3-thiazol-4-ylcarbonyl)pyrrolidin-3-amine]		0.35 µM
Cn1nc(-c2ccc(F)cc2)c2cc(C(=O)N3CC(N[C@H]4CCN(C(=O)c5ccccc5)C4)C3)ccc21 [Cpd 211, (3S)-N-(1-{[3-(4-Fluorophenyl)-1-methyl-1H-indazol-5-yl]carbonyl}azetidin-3-yl)-1-(phenylcarbonyl)pyrrolidin-3-amine]		0.943 µM
Cc1nc(-c2ccc(F)cc2)sc1C(=O)N1CC(N[C@H]2CCN(C(=O)c3nccs3)C2)C1 [Cpd 135, (3S)-N-(1-{[2-(4-Fluorophenyl)-4-methyl-1,3-thiazol-5-yl]carbonyl}azetidin-3-yl)-1-(1,3-thiazol-2-ylcarbonyl)pyrrolidin-3-amine]		1.13 µM
Cc1c(C(=O)N2CC(N(C=O)[C@H]3CCN(C(=O)c4nccs4)C3)C2)sc2ccc(Cl)cc12 [Cpd 82, N-{1-[(5-Chloro-3-methyl-1-benzothiophen-2-yl)carbonyl]azetidin-3-yl}-N-[(3S)-1-(1,3-thiazol-2-ylcarbonyl)pyrrolidin-3-yl]formamide]		0.231 µM
